Reference: ChEMBL document CHEMBL3217565, “Conformational effects on potency of thioimidazoles and dihydrothiazolines” (Medchemcomm, 2011)

What was measured:
[1] = molecular target: T1, Mitogen-activated protein kinase 14 (Homo sapiens, UniProt Q16539); experiment: Ratio of SB203580 IC50 to compound IC50 for p38-alpha MAPK (unknown origin)
[2] = molecular target: T1, Mitogen-activated protein kinase 14; experiment: Inhibition of p38-alpha MAPK (unknown origin) after 3 hrs

T1 sequence (Q16539 whole entry): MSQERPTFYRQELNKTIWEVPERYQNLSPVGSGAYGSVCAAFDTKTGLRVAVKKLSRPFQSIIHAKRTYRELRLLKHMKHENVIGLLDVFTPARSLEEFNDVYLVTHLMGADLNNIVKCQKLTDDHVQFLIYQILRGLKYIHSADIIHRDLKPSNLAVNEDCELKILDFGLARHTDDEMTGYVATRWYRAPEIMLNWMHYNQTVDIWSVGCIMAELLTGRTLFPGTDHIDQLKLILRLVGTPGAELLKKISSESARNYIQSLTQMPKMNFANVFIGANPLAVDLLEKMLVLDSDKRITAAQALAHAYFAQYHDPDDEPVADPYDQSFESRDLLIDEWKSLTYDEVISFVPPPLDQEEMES

Compound | Ratio IC50 [1] | IC50 [2]
CSc1nc(-c2ccc(F)cc2)c(-c2ccnc(NC(=O)c3cc4ccccc4o3)c2)n1C | 0.1 | 430 nM
CSc1nc(-c2ccc(F)cc2)c(-c2ccnc(NC(=O)c3cc4ccccc4o3)c2)[nH]1 | 0.7 | –
CSc1nc(-c2ccc(F)cc2)c(-c2ccnc(NC(=O)c3ccccc3)c2)n1C | 0.18 | 337 nM
CSc1nc(-c2ccc(F)cc2)c(-c2ccnc(NC(=O)Cc3ccc(F)cc3)c2)n1C | 0.24 | –
CSc1nc(-c2ccc(F)cc2)c(-c2ccnc(NC(=O)c3ccc(F)cc3)c2)n1C | 0.16 | 396 nM
CSc1nc(-c2ccc(F)cc2)c(-c2ccnc(NC(=O)Cc3ccc(F)cc3)c2)[nH]1 | 3.55 | –
CSc1nc(-c2ccc(F)cc2)c(-c2ccnc(NC(=O)c3ccc(C)c(F)c3)c2)[nH]1 | 1.93 | –
CSc1nc(-c2ccc(F)cc2)c(-c2ccnc(NC(=O)Cc3ccccc3)c2)n1C | 0.05 | 498 nM
CSc1nc(-c2ccc(F)cc2)c(-c2ccnc(NC(=O)c3ccc(C)c(F)c3)c2)n1C | 0.1 | 411 nM
O=C(Nc1cc(-c2c(-c3ccc(F)cc3)nc3n2CCS3)ccn1)c1ccco1 | 0.63 | 140 nM
CSc1nc(-c2ccc(F)cc2)c(-c2ccnc(NC(=O)c3ccco3)c2)[nH]1 | 1.46 | –
CSc1nc(-c2ccc(F)cc2)c(-c2ccnc(NC(=O)c3ccco3)c2)n1C | 0.35 | 173 nM
CSc1nc(-c2ccc(F)cc2)c(-c2ccnc(NC(=O)C3CC3c3ccccc3)c2)n1C (stereo not drawn) | 0.22 | 186 nM

More lines, in order of falling IC50 [2], values ahead:

Ratio IC50 [1] | IC50 [2] | Compound
0.77 | 115 nM | O=C(Nc1cc(-c2c(-c3ccc(F)cc3)nc3n2CCS3)ccn1)c1cc2ccccc2o1
0.89 | 83 nM | O=C(Nc1cc(-c2c(-c3ccc(F)cc3)nc3n2CCS3)ccn1)c1ccccc1
1.93 | 46 nM | O=C(Cc1ccc(F)cc1)Nc1cc(-c2c(-c3ccc(F)cc3)nc3n2CCS3)ccn1
0.97 | 46 nM | O=C(Cc1ccccc1)Nc1cc(-c2c(-c3ccc(F)cc3)nc3n2CCS3)ccn1
0.61 | 44 nM | CSc1nc(-c2ccc(F)cc2)c(-c2ccnc(NC(=O)c3ccc(F)cc3)c2)[nH]1
1.44 | 36 nM | O=C(Nc1cc(-c2c(-c3ccc(F)cc3)nc3n2CCS3)ccn1)c1ccc(F)cc1
0.96 | 29 nM | Cc1ccc(C(=O)Nc2cc(-c3c(-c4ccc(F)cc4)nc4n3CCS4)ccn2)cc1F
1.23 | 22 nM | CSc1nc(-c2ccc(F)cc2)c(-c2ccnc(NC(=O)Cc3ccccc3)c2)[nH]1
1.85 | 20 nM | CSc1nc(-c2ccc(F)cc2)c(-c2ccnc(NC(=O)C3CC3c3ccccc3)c2)[nH]1 (stereo not drawn)
1.4 | 20 nM | O=C(Nc1cc(-c2c(-c3ccc(F)cc3)nc3n2CCS3)ccn1)C1CC1c1ccccc1 (stereo not drawn)
1.36 | 19 nM | CSc1nc(-c2ccc(F)cc2)c(-c2ccnc(NC(=O)c3ccccc3)c2)[nH]1
